{"source": "paper PMC8159961", "about": "“Exploring protein hotspots by optimized fragment pharmacophores” (Nature Communications, 2021)", "key": {"[1]": {"target": "SARS-CoV-2 3CLPro (Severe acute respiratory syndrome coronavirus 2, UniProt P0DTD1)", "assay": "biochemical"}, "[2]": {"test_system": "SARS-CoV-2", "assay": "microbe, parasite or virus in culture", "format": "cell-based"}}, "note": "“And” between values parts separate entries of the source, which are not always exact repeats. Equal entries are not always repeated. Where two headings read alike, the source gives them in different places.", "data": [{"compound": "CS(=O)(=O)c1ccc(N2CCNCC2)cc1", "note": "[SX013]", "values": [{"measurement": "IC50", "setting": "[1]", "result": 31, "unit": "µM"}, {"measurement": "Inhibition (%)", "setting": "[2]; 10 uM, Vero E6, replicates", "result": "0% (2×) and 3.199%"}, {"measurement": "viral copy numbers normalized to the control (untreated infected cells)", "setting": "[2]; 10 uM, Vero E6, replicates", "result": "1.473 and 0.968 and 1.581"}, {"measurement": "Inhibition (%)", "setting": "[2]; 100 uM, Vero E6, replicates", "result": "10.36% and 9.981% and 0%"}, {"measurement": "viral copy numbers normalized to the control (untreated infected cells)", "setting": "[2]; 100 uM, Vero E6, replicates", "result": "0.8964 and 0.9002 and 2.418"}, {"measurement": "Inhibition (%)", "setting": "[2]; 250 uM, Vero E6, replicates", "result": "47.65% and 50.9%"}, {"measurement": "viral copy numbers normalized to the control (untreated infected cells)", "setting": "[2]; 250 uM, Vero E6, replicates", "result": "0.5487 and 0.5235 and 0.491"}, {"measurement": "Inhibition (%)", "setting": "[2]; 500 uM, Vero E6, replicates", "result": "62.09% and 74.66%"}, {"measurement": "viral copy numbers normalized to the control (untreated infected cells)", "setting": "[2]; 500 uM, Vero E6, replicates", "result": "0.2563 and 0.3791 and 0.2534"}, {"measurement": "Inhibition (%)", "setting": "[2]; 750 uM, Vero E6, replicates", "result": "96.1% and 86.32%"}, {"measurement": "viral copy numbers normalized to the control (untreated infected cells)", "setting": "[2]; 750 uM, Vero E6, replicates", "result": "0.06859 and 0.03899 and 0.1368"}, {"measurement": "Inhibition (%)", "setting": "[2]; 1000 uM, Vero E6, replicates", "result": 99.81, "unit": "%"}, {"measurement": "viral copy numbers normalized to the control (untreated infected cells)", "setting": "[2]; 1000 uM, Vero E6, replicates", "result": "0.003839 and 0.001919 and 0"}, {"measurement": "Inhibition (%)", "setting": "[2]; 1500 uM, Vero E6, replicates", "result": 99.97, "unit": "%"}, {"measurement": "viral copy numbers normalized to the control (untreated infected cells)", "setting": "[2]; 1500 uM, Vero E6, replicates", "result": "0 (2×) and 0.000289"}, {"measurement": "inhibition at 250 µM", "setting": "[2]; Severe acute respiratory syndrome coronavirus 2, Vero C1008, 250 uM, Vero E6, replicates", "result": 45.1, "unit": "%"}, {"measurement": "inhibition at 500 µM", "setting": "[2]; Severe acute respiratory syndrome coronavirus 2, Vero C1008, 500 uM, Vero E6, replicates", "result": 74.4, "unit": "%"}, {"measurement": "inhibition at 750 µM", "setting": "[2]; Severe acute respiratory syndrome coronavirus 2, Vero C1008, 750 uM, Vero E6, replicates", "result": 93.1, "unit": "%"}, {"measurement": "inhibition at 1000 µM", "setting": "[2]; Severe acute respiratory syndrome coronavirus 2, Vero C1008, 1000 uM, Vero E6, replicates", "result": 99.6, "unit": "%"}, {"measurement": "inhibition at 1500 µM", "setting": "[2]; Severe acute respiratory syndrome coronavirus 2, Vero C1008, 1500 uM, Vero E6, replicates", "result": 100, "unit": "%"}, {"measurement": "EC50", "setting": "[2]; Severe acute respiratory syndrome coronavirus 2, Vero C1008, 48 h, read-out: EC50, blocking SARS-CoV-2 replication, Vero E6 cells, 48 h post infection", "result": 304, "unit": "µM"}, {"measurement": "EC50", "setting": "[2]; read-out: EC50, blocking SARS-CoV-2 replication, Vero E6 cells, 48 h post infection", "result": 304, "unit": "µM"}]}]}
